Source: patent publication US20240132484A1, “BROAD SPECTRUM ANTIVIRAL COMPOUNDS TARGETING THE SKI COMPLEX” (priority 2020, published 2024)
“And” between values parts separate entries of the source, which are not always exact repeats. Equal values may be shown once. Read-outs that look alike come from different tables or passages of the source.

Key:
SARS2 = assay type: cell-based, SARS-CoV-2; conditions: for Infection Data, Average, Mean: average of Exp 1-3 (SMW475, SMW477, SMW478)
cells (nuclei count) = conditions: for Toxicity Data, Average, Mean: average of Exp 1-3 (SMW475, SMW477, SMW478)

COC(=O)c1csc(CN(CCN(C)C)Cc2cccs2)c1 [SILCS29]
Percentage Infection Relative to Appropriate DMSO Control with Avg Background Subtraction (SARS2; Exp 1 (SMW475), 5 uM, single well): 1.25% and −0.49% and 2.25%
Percentage Infection Relative to Appropriate DMSO Control with Avg Background Subtraction (SARS2; Exp 1 (SMW475), 10 uM, single well): 57.43% and 82.75% and 79.22%
Percentage Infection Relative to Appropriate DMSO Control with Avg Background Subtraction (SARS2; Exp 1 (SMW475), 25 uM, single well): 13.47% and 21.51% and 26.64%
Percentage Infection Relative to Appropriate DMSO Control with Avg Background Subtraction (SARS2; Exp 1 (SMW475), 50 uM, single well): 13.24% and 10.68% and 10.82%
Percentage Infection Relative to Appropriate DMSO Control with Avg Background Subtraction (SARS2; Exp 2 (SMW477), 1 uM, single well): 96.79% and 118.82% and 112.77%
Percentage Infection Relative to Appropriate DMSO Control with Avg Background Subtraction (SARS2; Exp 2 (SMW477), 5 uM, single well): 84.54% and 117.80% and 116.09%
Percentage Infection Relative to Appropriate DMSO Control with Avg Background Subtraction (SARS2; Exp 2 (SMW477), 10 uM, single well): 78.23% and 124.37% and 115.30%
Percentage Infection Relative to Appropriate DMSO Control with Avg Background Subtraction (SARS2; Exp 2 (SMW477), 50 uM, single well): 2.61% and 6.87% and 8.07%
Percentage Infection Relative to Appropriate DMSO Control with Avg Background Subtraction (SARS2; Exp 3 (SMW478), 1 uM, Greiner Celigo plates): 97.82% and 84.39% and 100.08%
Percentage Infection Relative to Appropriate DMSO Control with Avg Background Subtraction (SARS2; Exp 3 (SMW478), 5 uM, Greiner Celigo plates): 95.72% and 88.47% and 77.81%
Percentage Infection Relative to Appropriate DMSO Control with Avg Background Subtraction (SARS2; Exp 3 (SMW478), 10 uM, Greiner Celigo plates): 99.71% and 91.75% and 106.45%
Percentage Infection Relative to Appropriate DMSO Control with Avg Background Subtraction (SARS2; Exp 3 (SMW478), 50 uM, Greiner Celigo plates): 6.88% and −1.19% and −1.09%
Percentage Inhibition Average 1 μM (SARS2; SARS2, 1 μM): 15.78%
Screening data (Relative infection to DMSO controls) Average 1 μM (SARS2; SARS2, 1 μM, 100=DMSO control): 84.22
Percentage Inhibition Average 5 μM (SARS2; SARS2, 5 μM): 35.17%
Screening data (Relative infection to DMSO controls) Average 5 μM (SARS2; SARS2, 5 μM, 100=DMSO control): 64.83
Percentage Inhibition Average 10 μM (SARS2; SARS2, 10 μM): 7.20%
Screening data (Relative infection to DMSO controls) Average 10 μM (SARS2; SARS2, 10 μM, 100=DMSO control): 92.80
Percentage Inhibition Average 25 μM (SARS2; SARS2, 25 μM): 67.28%
Screening data (Relative infection to DMSO controls) Average 25 μM (SARS2; SARS2, 25 μM, 100=DMSO control): 32.72
Percentage Inhibition Average 50 μM (SARS2; SARS2, 50 μM): 93.68%
Screening data (Relative infection to DMSO controls) Average 50 μM (SARS2; SARS2, 50 μM, 100=DMSO control): 6.32
Average (relative infection to DMSO over the 5 tested concentrations) (SARS2; SARS2, average over 1 to 50 uM, 100=DMSO control): 56.18
Infection Data, Average, Mean (SARS2; n 9, 1 uM): 84.22%
Infection Data, Average, Mean (SARS2; n 9, 5 uM): 64.83%
Infection Data, Average, Mean (SARS2; n 9, 10 uM): 92.80%
Infection Data, Average, Mean (SARS2; n 9, 25 uM): 32.72%
Infection Data, Average, Mean (SARS2; n 9, 50 uM): 6.32%
Relative cell count to DMSO controls, Average 1 μM (cells (nuclei count); 1 μM, toxicity data, 100=DMSO control): 104.12
Relative cell count to DMSO controls, Average 5 μM (cells (nuclei count); 5 μM, toxicity data, 100=DMSO control): 110.81
Relative cell count to DMSO controls, Average 10 μM (cells (nuclei count); 10 μM, toxicity data, 100=DMSO control): 90.99
Relative cell count to DMSO controls, Average 25 μM (cells (nuclei count); 25 μM, toxicity data, 100=DMSO control): 101.15
Relative cell count to DMSO controls, Average 50 μM (cells (nuclei count); 50 μM, toxicity data, 100=DMSO control): 67.81
Toxicity Data, Average, Mean (cells (nuclei count); n 9, 1 uM): 104.12%
Toxicity Data, Average, Mean (cells (nuclei count); n 9, 5 uM): 110.81%
Toxicity Data, Average, Mean (cells (nuclei count); n 9, 10 uM): 90.99%
Toxicity Data, Average, Mean (cells (nuclei count); n 9, 25 uM): 101.15%
Toxicity Data, Average, Mean (cells (nuclei count); n 9, 50 uM): 67.81%
Relative cell count to DMSO controls, Average (for correlation analysis) (cells (nuclei count); average value over the 5 tested concentrations (1 to 50 uM)): 94.98
